Results taken from BindingDB's records for doi:10.1016/s0960-894x(03)00589-4 (University of California Irvine, 2003).

Assay: Inhibitory concentration required against protein phosphatase 1 using pNPP assay

Row | SMILES | IC50
1 | CO[C@@H](Cc1ccccc1)[C@@H](C)/C=C(C)/C=C/[C@H](NC(C)=O)[C@H](C)C(=O)N[C@H](CCC(=O)N(C)CC(=O)N[C@H](C)C(=O)N[C@@H](CC(C)C)C(=O)O)C(=O)O [(S)-2-[(R)-2-(2-{[(R)-4-((4E,6E)-(2S,3S,8S,9S)-3-Acetylamino-9-methoxy-2,6,8-trimethyl-10-phenyl-deca-4,6-dienoylamino)-4-carboxy-butyryl]-methyl-amino}-acetylamino)-1-oxo-propylamino]-4-methyl-pentanoic acid] | 230 µM
2 | C=C(C(=O)N[C@H](C)C(=O)N[C@@H](CC(C)C)C(=O)O)N(C)C(=O)CC[C@@H](NC(=O)[C@@H](C)[C@H](/C=C/C(C)=C/[C@H](C)[C@H](Cc1ccccc1)OC)NC(C)=O)C(=O)O [(S)-2-[(R)-2-(2-{[(R)-4-((4E,6E)-(2S,3S,8S,9S)-3-Acetylamino-9-methoxy-2,6,8-trimethyl-10-phenyl-deca-4,6-dienoylamino)-4-carboxy-butyryl]-methyl-amino}-acryloylamino)-1-oxo-propylamino]-4-methyl-pentanoic acid] | 75 µM
3 | COC(=O)[C@@H](CCC(=O)N(C)C)NC(=O)[C@@H](C)[C@H](/C=C/C(C)=C/[C@H](C)[C@H](Cc1ccccc1)OC)NC(C)=O [(R)-2-((4E,6E)-(2S,3S,8S,9S)-3-Acetylamino-9-methoxy-2,6,8-trimethyl-10-phenyl-deca-4,6-dienoylamino)-4-dimethylcarbamoyl-butyric acid methyl ester] | > 100 µM
4 | CO[C@@H](Cc1ccccc1)[C@@H](C)/C=C(C)/C=C/[C@H](NC(C)=O)[C@H](C)C(=O)N[C@H](CCC(=O)N(C)C)C(=O)O [(R)-2-((4E,6E)-(2S,3S,8S,9S)-3-Acetylamino-9-methoxy-2,6,8-trimethyl-10-phenyl-deca-4,6-dienoylamino)-4-dimethylcarbamoyl-butyric acid] | > 100 µM
5 | CO[C@@H](Cc1ccccc1)[C@@H](C)/C=C(C)/C=C/[C@H](NC(C)=O)[C@H](C)C(=O)N[C@H](CCC(=O)N(C)CC(=O)N[C@H](C)C(=O)O)C(=O)O [(R)-2-((4E,6E)-(2S,3S,8S,9S)-3-Acetylamino-9-methoxy-2,6,8-trimethyl-10-phenyl-deca-4,6-dienoylamino)-4-{[((R)-1-carboxy-ethylcarbamoyl)-methyl]-methyl-carbamoyl}-butyric acid] | 400 µM
